Literature values, collected in patent EP3331513B1, “HYDROALCOHOLIC SOLUTIONS COLOURED WITH CHLORHEXIDINE, METHODS FOR THE PRODUCTION THEREOF, AND USES OF SAME” (Université Claude Bernard Lyon I, priority 2015, dated 2017).

SMILES: [H]/N=C(\N/C(=N/[H])NCCCCCCNC(=N)NC(=N)Nc1ccc(Cl)cc1)Nc1ccc(Cl)cc1 [digluconate de chlorhexidine]
- solubilité dans les alcools (alcools primaires en C2 et C3, notamment éthanol): assez soluble
- solubilité dans l'eau (eau): miscible à l'eau
